These compounds were tested against MYT1 protein (Homo sapiens (Human), UniProt Q99640) (assay: Test for binding to ATP binding site of MYT1 (Kinase Tracer 178 / Eu-Anti-GST antibody TR-FRET)). Details: ATP binding site of MYT1, 30 minutes at room temperature.
Chain of MYT1 protein (Q99640 whole entry): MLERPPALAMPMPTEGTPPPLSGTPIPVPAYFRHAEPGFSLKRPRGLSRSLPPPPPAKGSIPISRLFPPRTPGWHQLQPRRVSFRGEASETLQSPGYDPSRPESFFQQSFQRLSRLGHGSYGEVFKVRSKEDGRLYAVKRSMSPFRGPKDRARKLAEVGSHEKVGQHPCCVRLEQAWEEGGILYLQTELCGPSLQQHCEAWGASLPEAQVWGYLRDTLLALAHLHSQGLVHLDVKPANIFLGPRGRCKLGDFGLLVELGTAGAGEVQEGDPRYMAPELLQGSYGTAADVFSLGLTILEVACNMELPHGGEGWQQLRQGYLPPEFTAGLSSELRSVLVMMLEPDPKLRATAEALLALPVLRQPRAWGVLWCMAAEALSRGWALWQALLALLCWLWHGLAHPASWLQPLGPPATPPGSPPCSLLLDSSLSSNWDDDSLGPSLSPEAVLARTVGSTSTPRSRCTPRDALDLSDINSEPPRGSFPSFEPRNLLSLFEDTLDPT

| IC50 [nM] | SMILES |
| --- | --- |
| 0.87 | N#C[C@H]1C[C@H](Oc2cc3c(-c4cc(F)c(F)c5[nH]ncc45)c(N)c(=O)[nH]c3c3cccnc23)C1 [Compound C211, (1r,3r)-3-[[3-Amino-4-(6,7-difluoro-1H-indazol-4-yl)-2-oxo-1H-1,7-phenanthrolin-6-yl]oxy]cyclobutane-1-carbonitrile] |
| 1.7 | Nc1c(-c2cc(F)c(F)c3[nH]ncc23)c2cc(OCCC(F)F)c3ncccc3c2[nH]c1=O [Compound C214, 3-Amino-4-(6,7-difluoro-1H-indazol-4-yl)-6-(3,3-difluoropropoxy)-1H-1,7-phenanthrolin-2-one] |
| 2.4 | Nc1c(-c2cc(F)c(F)c3[nH]ncc23)c2cc(-c3cccnc3)c3ncccc3c2[nH]c1=O [Compound C215, 3-Amino-4-(6,7-difluoro-1H-indazol-4-yl)-6-pyridin-3-yl-1H-1,7-phenanthrolin-2-one] |
| 3.4 | Cc1c(C)c2c(-c3cc(F)c(F)c4[nH]ncc34)c(N)c(=O)[nH]c2c2cccnc12 [Compound C216, 3-Amino-4-(6,7-difluoro-1H-indazol-4-yl)-5,6-dimethyl-1H-1,7-phenanthrolin-2-one] |
| 1.8 | Cc1c(C2CC2)c2ncccc2c2[nH]c(=O)c(N)c(-c3cc(F)c(F)c4[nH]ncc34)c12 [Compound C217, 3-Amino-6-cyclopropyl-4-(6,7-difluoro-1H-indazol-4-yl)-5-methyl-1H-1,7-phenanthrolin-2-one] |
| 0.43 | Cc1cc2ncccc2c2[nH]c(=O)c(N)c(-c3cc(F)c(F)c4[nH]ncc34)c12 [Compound C218, 3-Amino-4-(6,7-difluoro-1H-indazol-4-yl)-5-methyl-1H-1,7-phenanthrolin-2-one] |
| 2.1 | Cc1c(F)c2c(-c3cc(F)c(F)c4[nH]ncc34)c(N)c(=O)[nH]c2c2cccnc12 [Compound C219, 3-Amino-4-(6,7-difluoro-1H-indazol-4-yl)-5-fluoro-6-methyl-1H-1,7-phenanthrolin-2-one] |
| 4.1 | Nc1c(-c2cc(F)c(F)c3[nH]ncc23)c2c(F)c(C3CC3)c3ncccc3c2[nH]c1=O [Compound C220, 3-Amino-6-cyclopropyl-4-(6,7-difluoro-1H-indazol-4-yl)-5-fluoro-1H-1,7-phenanthrolin-2-one] |
| 0.72 | Nc1c(-c2cc(F)c(F)c3[nH]ncc23)c2c(F)cc3ncccc3c2[nH]c1=O [Compound C221, 3-Amino-4-(6,7-difluoro-1H-indazol-4-yl)-5-fluoro-1H-1,7-phenanthrolin-2-one] |
| 1.4 | Cc1cc2c(-c3c(F)cc(F)c4[nH]ncc34)c(N)c(=O)[nH]c2c2cccnc12 [Compound C222, 3-Amino-4-(5,7-difluoro-1H-indazol-4-yl)-6-methyl-1H-1,7-phenanthrolin-2-one] |
| 750 | Cc1cc2c(-c3nccc4[nH]ncc34)c(N)c(=O)[nH]c2c2cccnc12 [Compound C223, 3-Amino-6-methyl-4-(1H-pyrazolo[4,3-c]pyridin-4-yl)-1H-1,7-phenanthrolin-2-one] |
| 3000 | Cc1cc2c(-c3cccc4[nH]nnc34)c(N)c(=O)[nH]c2c2cccnc12 [Compound C224, 3-Amino-4-(1H-benzotriazol-4-yl)-6-methyl-1H-1,7-phenanthrolin-2-one] |
| 1000 | CC(C)(C)c1cc2c(-c3ccc(F)c4[nH]ncc34)c(N)c(=O)[nH]c2c2cccnc12 [Compound C225, 3-Amino-6-(tert-butyl)-4-(7-fluoro-1H-indazol-4-yl)-1H-1,7-phenanthrolin-2-one] |
| 4.6 | Cc1cc2c(-c3ccc(F)c4[nH]ncc34)c(N)c(=O)[nH]c2c2ncccc12 [Compound D3, 3-Amino-4-(7-fluoro-1H-indazol-4-yl)-6-methyl-1H-1,10-phenanthrolin-2-one] |
| 15 | Nc1c(-c2ccc(F)c3[nH]ncc23)c2ccc3cccnc3c2[nH]c1=O [Compound D4, 3-Amino-4-(7-fluoro-1H-indazol-4-yl)-1H-1,10-phenanthrolin-2-one] |
| 6.4 | CCc1cc2c(-c3ccc(F)c4[nH]ncc34)c(N)c(=O)[nH]c2c2ncccc12 [Compound D5, 3-Amino-6-ethyl-4-(7-fluoro-1H-indazol-4-yl)-1H-1,10-phenanthrolin-2-one] |
| 2.1 | CN1CCN(c2cc3c(-c4ccc(F)c5[nH]ncc45)c(N)c(=O)[nH]c3c3ncccc23)CC1 [Compound D6, 3-Amino-4-(7-fluoro-1H-indazol-4-yl)-6-(4-methylpiperazin-1-yl)-1H-1,10-phenanthrolin-2-one] |
| 15 | Nc1c(-c2ccc(F)c3[nH]ncc23)c2cc(N3CCC(N4CCOCC4)CC3)c3cccnc3c2[nH]c1=O [Compound D7, 3-Amino-4-(7-fluoro-1H-indazol-4-yl)-6-(4-morpholin-4-ylpiperidin-1-yl)-1H-1,10-phenanthrolin-2-one] |
| 10 | Nc1c(-c2ccc(F)c3[nH]ncc23)c2cc(N3CCC(F)(F)C3)c3cccnc3c2[nH]c1=O [Compound D8, 3-Amino-6-(3,3-difluoropyrrolidin-1-yl)-4-(7-fluoro-1H-indazol-4-yl)-1H-1,10-phenanthrolin-2-one] |
| 22 | Nc1c(-c2ccc(F)c3[nH]ncc23)c2cc(N3CCOCC3)c3cccnc3c2[nH]c1=O [Compound D9, 3-Amino-4-(7-fluoro-1H-indazol-4-yl)-6-morpholin-4-yl-1H-1,10-phenanthrolin-2-one] |
| 3.9 | Nc1c(-c2ccc(F)c3[nH]ncc23)c2cc(N3CC4(COC4)C3)c3cccnc3c2[nH]c1=O [Compound D10, 3-Amino-4-(7-fluoro-1H-indazol-4-yl)-6-(2-oxa-6-azaspiro[3,3]heptan-6-yl)-1H-1,10-one] |
| 20 | Nc1c(-c2ccc(F)c3[nH]ncc23)c2cc(N3CC(N4CC(F)(F)C4)C3)c3cccnc3c2[nH]c1=O [Compound D11, 3-Amino-6-[3-(3,3-difluoroazetidin-1-yl)azetidin-1-yl]-4-(7-fluoro-1H-indazol-4-yl)-1H-1,10-phenanthrolin-2-one] |
| 49 | Nc1c(-c2ccc(F)c3[nH]ncc23)c2cc(N3CCN4CCOC[C@H]4C3)c3cccnc3c2[nH]c1=O [Compound D12, 6-[(9aR)-3,4,6,7,9,9a-hexahydro-1H-pyrazino[2,1-c][1,4]oxazin-8-yl]-3-amino-4-(7-fluoro-1H-indazol-4-yl)-1H-1,10-phenanthrolin-2-one] |
| 25 | Nc1c(-c2ccc(F)c3[nH]ncc23)c2cc(N3CCN4CCOC[C@@H]4C3)c3cccnc3c2[nH]c1=O [Compound D13, 6-[(9aS)-3,4,6,7,9,9a-hexahydro-1H-pyrazino[2,1-c][1,4]oxazin-8-yl]-3-amino-4-(7-fluoro-1H-indazol-4-yl)-1H-1,10-phenanthrolin-2-one] |
| 33 | Nc1c(-c2ccc(F)c3[nH]ncc23)c2cc(N3CCN(CC(F)F)CC3)c3cccnc3c2[nH]c1=O [Compound D14, 3-Amino-6-[4-(2,2-difluoroethyl)piperazin-1-yl]-4-(7-fluoro-1H-indazol-4-yl)-1H-1,10-phenanthrolin-2-one] |
| 69 | Nc1c(-c2ccc(F)c3[nH]ncc23)c2cc(N3CCN(CC(F)(F)F)CC3)c3cccnc3c2[nH]c1=O [Compound D15, 3-Amino-4-(7-fluoro-1H-indazol-4-yl)-6-[4-(2,2,2-trifluoroethyl)piperazin-1-yl]-1H-1,10-phenanthrolin-2-one] |

— patent US20260062412A1, “NITROGEN-CONTAINING HETEROCYCLIC COMPOUND HAVING MYT1 INHIBITORY ACTIVITY” (CHUGAI SEIYAKU KABUSHIKI KAISHA, priority 2023, published 2026)
